Results taken from ChEMBL document CHEMBL5728913, “Indoleamine 2,3-dioxygenase inhibitor, method for preparation and use thereof” (2022).
Where “and” joins values, the source holds several entries; their conditions need not be identical. Equal values may be shown once.

Each compound was assayed against Indoleamine 2,3-dioxygenase 1 (Homo sapiens, UniProt P14902) (assay: Inhibitory Activity Assay: 1. […] Reagent Preparation100 mM PBS:100 mM disodium hydrogen phosphate and 100 mM potassium dihydrogen phosphate mixed in a ratio of 3:5, pH 6.5IDO1 assay buffer:100 mM PBS containing 400 μM L-tryptophan, 20 mM ascorbate, 20 μM methylene blue and 1000 U/ml catalase, pH 6.530% trichloroacetic acidddH2 O solution of 30% trichloroacetic acidEhrlich reagent1% (w/v) diluted solution of 4-(dimethylamino) benzaldehyde compoundAll compounds were dissolved with DMSO. During the assay, each compound was diluted to a concentration as needed. The compound of each concentration was added to multi-wells, and the final concentration of DMSO was controlled at 1%.3. Test Methoda.) the reaction mixture was prepared by adding 50 nM IDO1 and the desired concentration of the test compound to 100 μL of IDO1 assay buffer. IDO1 and assay buffer need to be preheated to 37° C.b.) The mixture was reacted in a constant temperature water tank at 37° C. for 30 minutes.c.) 50 μL of 30% trichloroacetic acid was added.d.) The above mixture was reacted in a constant temperature water tank at 52° C. for 30 minutes.e.) The reaction mixture was centrifuged at 12000 g for 10 minutes at room temperature.f.) 100 μL of the obtained supernatant and 100 μL of Ehrlich reagent were mixed.g.) the absorbance at 480 nm was measured using an M5 microplate reader.4. Data AnalysisInhibition rate=(ODpostive−ODsample)/(ODpositive−ODnegative)*100%5. Results and Discussion).
Chain of Indoleamine 2,3-dioxygenase 1 (P14902 whole entry): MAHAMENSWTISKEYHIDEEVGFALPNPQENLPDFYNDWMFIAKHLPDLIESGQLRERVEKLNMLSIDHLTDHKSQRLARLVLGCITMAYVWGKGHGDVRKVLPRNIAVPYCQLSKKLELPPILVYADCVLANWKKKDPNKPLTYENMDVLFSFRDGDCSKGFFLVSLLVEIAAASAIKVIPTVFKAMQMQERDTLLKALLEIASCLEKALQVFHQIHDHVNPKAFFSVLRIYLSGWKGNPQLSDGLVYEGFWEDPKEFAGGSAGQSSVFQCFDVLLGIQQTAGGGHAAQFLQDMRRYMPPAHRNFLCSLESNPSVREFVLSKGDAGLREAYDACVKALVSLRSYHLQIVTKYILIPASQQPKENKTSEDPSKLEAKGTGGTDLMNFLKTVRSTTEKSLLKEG

| SMILES | IC50 |
| --- | --- |
| O/N=C(\Nc1ccc(F)c(Br)c1)c1nonc1NO | 125 nM |
| O/N=C(\Nc1ccc(F)c(Br)c1)c1nonc1NOCCOc1ccccc1 | 120 nM |
| NCCONc1nonc1/C(=N/O)Nc1ccc(F)c(Br)c1 | 35 nM and 43 nM |
| O=C1C=CC(=O)N1CCONc1nonc1/C(=N/O)Nc1ccc(F)c(Cl)c1 | 32 nM and 58 nM |
| NS(=O)(=O)NCC1(CONc2nonc2/C(=N/O)Nc2ccc(F)c(Br)c2)CC1 | 82 nM |
| CSNc1nonc1/C(=N/O)Nc1ccc(F)c(Cl)c1 | 53 nM |
| O/N=C(\Nc1ccc(F)c(Br)c1)c1nonc1NOCCN1CCOCC1 | 43 nM and 38 nM |
| O=C(NCCOCCONc1nonc1/C(=N/O)Nc1ccc(F)c(Br)c1)Nc1cc(F)cc(F)c1 | 72 nM |
| CC(C)OC(=O)NCCONc1nonc1/C(=N/O)Nc1ccc(F)c(Br)c1 | 36 nM and 28 nM |
| NC1CCC(ONc2nonc2/C(=N/O)Nc2ccc(F)c(Br)c2)CC1 (stereo not drawn) | 184 nM |
| O=C(Nc1ccccc1)ONc1nonc1/C(=N/O)Nc1ccc(F)c(Br)c1 | 48 nM |
| O/N=C(\Nc1ccc(F)c(Br)c1)c1nonc1NOC1CCCNC1 (stereo not drawn) | 80 nM |
| CC(=O)NCCONc1nonc1/C(=N/O)Nc1ccc(F)c(Br)c1 | 162 nM |
| CCCCONc1nonc1/C(=N/O)Nc1ccc(F)c(Br)c1 | 80 nM |
| NC(=O)C(N)CCONc1nonc1/C(=N/O)Nc1ccc(F)c(Br)c1 (stereo not drawn) | 85 nM |
| NS(=O)(=O)N1CCC(ONc2nonc2/C(=N/O)Nc2ccc(F)c(Br)c2)CC1 | 65 nM |
| CC(=O)ONc1nonc1/C(=N/O)Nc1ccc(F)c(Br)c1 | 92 nM |
| O=C(ONc1nonc1/C(=N/O)Nc1ccc(F)c(Br)c1)c1ccccc1 | 65 nM |
| O=C(NCCONc1nonc1/C(=N/O)Nc1ccc(F)c(Br)c1)Nc1cc(F)cc(F)c1 | 12 nM |
| O=C(NCCONc1nonc1/C(=N/O)Nc1ccc(F)c(Br)c1)NC1CCCC1 | 69 nM |
| O=C1CCC(=O)N1CCONc1nonc1/C(=N/O)Nc1ccc(F)c(Br)c1 | 96 nM |
| O/N=C(\Nc1ccc(F)c(Cl)c1)c1nonc1NS | 104 nM |
| O/N=C(\Nc1ccc(F)c(Br)c1)c1nonc1NOCCN1CCCC1 | 108 nM |
